The record followed here is publication PMC4957513, “Functional Characterization of a Hexose Transporter from Root Endophyte Piriformospora indica” (Frontiers in Microbiology, 2016).

Assay [1] has as its target T1, PiHXT5 (Serendipita indica, UniProt G4TIR7).
T1 construct: gene PIIN_05137
The experiment in a line: competition of […]-glucose uptake in yeast EBY.VW4000. The conditions noted are these: 25 μM 14C-glucose, five-fold excess of unlabelled sugar, 1 min, 30 °C; intact cells. Type of assay: cell-based.

Assay [2] concerns the target T1, PiHXT5. In words: […]-glucose uptake in yeast EBY.VW4000, Michaelis-Menten fit. Type of assay: cell-based. The conditions noted are these: pH 6.5, 50 mM potassium phosphate, 0.6 M sorbitol; intact cells; labelled compound; H+ symport; read-out: apparent Km.

T1 sequence (G4TIR7 entry or part of it): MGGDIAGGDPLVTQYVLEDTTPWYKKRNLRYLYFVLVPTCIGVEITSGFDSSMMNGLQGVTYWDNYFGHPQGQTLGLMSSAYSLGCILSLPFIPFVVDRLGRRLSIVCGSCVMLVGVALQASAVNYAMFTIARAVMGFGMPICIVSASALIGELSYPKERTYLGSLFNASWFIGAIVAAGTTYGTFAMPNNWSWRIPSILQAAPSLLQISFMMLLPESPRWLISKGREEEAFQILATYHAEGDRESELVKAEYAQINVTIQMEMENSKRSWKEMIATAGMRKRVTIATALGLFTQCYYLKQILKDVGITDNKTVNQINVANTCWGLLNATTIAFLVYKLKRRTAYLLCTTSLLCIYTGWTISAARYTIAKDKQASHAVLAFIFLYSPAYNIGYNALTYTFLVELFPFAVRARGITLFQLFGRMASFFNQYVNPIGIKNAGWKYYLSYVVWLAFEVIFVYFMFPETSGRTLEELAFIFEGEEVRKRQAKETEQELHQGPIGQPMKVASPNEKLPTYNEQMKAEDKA

On to `OCC1(O)OC[C@@H](O)[C@@H](O)[C@@H]1O` (stereo partly drawn) [D-fructose], for which the “% of control 14C-glucose uptake at five-fold excess” value at PiHXT5 [1] is “PiHXT5 is able to transport Glc, Fru, Xyl, Man, and Gal with decreasing affinity”.

As for `OC[C@H]1OC(O)[C@H](O)[C@@H](O)[C@H]1O` (stereo partly drawn) [D-galactose], at PiHXT5 [1], the “% of control 14C-glucose uptake at five-fold excess” value is “PiHXT5 is able to transport Glc, Fru, Xyl, Man, and Gal with decreasing affinity”.

Consider `OC[C@H]1OC(O)[C@H](O)[C@@H](O)[C@@H]1O` (stereo partly drawn) [D-glucose], for which the Km (as a rule, the substrate concentration at which the rate is half of its maximum) at PiHXT5 [2] turned out to be 2.56 ± 0.18 mM.

Take `OC[C@H]1OC(O)[C@@H](O)[C@@H](O)[C@@H]1O` (stereo partly drawn) [D-mannose]: the “% of control 14C-glucose uptake at five-fold excess” value on PiHXT5 [1] is “PiHXT5 is able to transport Glc, Fru, Xyl, Man, and Gal with decreasing affinity”.

As to `OC1OC[C@@H](O)[C@H](O)[C@H]1O` (stereo partly drawn) [D-xylose], the “% of control 14C-glucose uptake at five-fold excess” value on PiHXT5 [1] was “PiHXT5 is able to transport Glc, Fru, Xyl, Man, and Gal with decreasing affinity”.
